Laboratory results from PubChem BioAssay (NCI).
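Five concentrations, 48 hours, 96-well plates. GI50 = concentration required for 50% inhibition of growth. TGI: total growth inhibition.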

Experiments:
Test in all cases: NCI anticancer screen, dose series, 48 h
COLO 205 colon = test system: COLO 205 colon
HOP-92 NSCLC = test system: HOP-92 NSCLC
IGROV1 ovarian = test system: IGROV1 ovarian
K-562 leukemia = test system: K-562 leukemia
KM12 colon = test system: KM12 colon
MDA-N = test system: MDA-N
NCI-H23 lung = test system: NCI-H23 lung
DLD-1 colon = test system: DLD-1 colon
DMS 114 small cell lung = test system: DMS 114 small cell lung
HOP-18 NSCLC = test system: HOP-18 NSCLC
KM20L2 colon = test system: KM20L2 colon
M19-MEL melanoma = test system: M19-MEL melanoma
SNB-78 CNS = test system: SNB-78 CNS
XF 498 CNS = test system: XF 498 CNS

Structure (SMILES) | TGI (COLO 205 colon) [µM] | TGI (HOP-92 NSCLC) [µM] | GI50 (IGROV1 ovarian) [µM] | TGI (IGROV1 ovarian) [µM] | TGI (K-562 leukemia) [µM] | GI50 (KM12 colon) [µM] | TGI (KM12 colon) [µM] | TGI (MDA-N) [µM] | TGI (NCI-H23 lung) [µM] | TGI (DLD-1 colon) [µM] | TGI (DMS 114 small cell lung) [µM] | TGI (HOP-18 NSCLC) [µM] | TGI (KM20L2 colon) [µM] | TGI (M19-MEL melanoma) [µM] | TGI (SNB-78 CNS) [µM] | GI50 (COLO 205 colon) [µM] | GI50 (HOP-92 NSCLC) [µM] | GI50 (K-562 leukemia) [µM] | GI50 (NCI-H23 lung) [µM] | TGI (XF 498 CNS) [µM]
COc1c2occc2cc2ccc(=O)oc12 | > 100 | > 100 | > 100 | > 100 | > 100 | > 100 | > 100 | > 100 | > 100 | – | – | – | – | – | – | – | – | – | – | –
CCOC(=O)C1=C(C)N(C2OC(COC(C)=O)C(OC(C)=O)C(OC(C)=O)C2OC(C)=O)C(=O)NC1c1ccccc1 (stereo not drawn) | > 100 | – | – | > 100 | > 100 | – | > 100 | – | > 100 | > 100 | > 100 | > 100 | > 100 | > 100 | > 100 | – | – | – | – | –
C=CCOC1OC(CS(=O)(=O)O)C(OC(C)=O)C(OC(C)=O)C1OC(C)=O (stereo not drawn) | > 100 | > 100 | – | > 100 | > 100 | – | > 100 | > 100 | > 100 | – | – | – | – | – | – | – | – | – | – | –
CCCCCCCCCC[N+](C)(C)C | 2.59 | 4.6 | 1.66 | 3.2 | 7.82 | – | – | – | 6.34 | – | – | – | – | – | – | 1.28 | 0.677 | 1.82 | 2 | –
c1ccc(N2N=C3N(c4ccccc4)C2N3c2ccccc2)cc1 | 49.1 | 60.8 | – | > 100 | 59.5 | – | > 100 | 41.8 | > 100 | – | – | – | – | – | – | – | – | – | – | –
COc1ccc(OCC(C)(C)O)cc1 | > 100 | > 100 | – | > 100 | > 100 | – | > 100 | – | > 100 | > 100 | > 100 | > 100 | > 100 | – | > 100 | – | – | – | – | > 100
CC(=O)OCc1nnn2c1CCC2 | – | > 100 | – | > 100 | > 100 | – | > 100 | – | – | > 100 | – | > 100 | > 100 | > 100 | > 100 | – | – | – | – | > 100
CCCCn1c(C)c2c(c1C)C(=O)N(CCN1CCN(c3ccccc3Cl)CC1)C2=O | > 100 | 68.5 | – | > 100 | 92.1 | – | > 100 | > 100 | 85.4 | – | – | – | – | – | – | – | – | – | – | –
CCCCCCC(=O)c1ccc2ccccc2c1O | > 100 | > 100 | – | > 100 | > 100 | – | > 100 | – | > 100 | – | – | – | – | – | – | – | – | – | – | –
CCOC(=O)/C=C/c1c[nH]c(=O)[nH]c1=O | > 75 | > 75 | – | > 75 | > 75 | – | > 75 | – | > 75 | > 75 | > 75 | > 75 | > 75 | > 75 | > 75 | – | – | – | – | > 75
COc1ccc(-c2c3c(nc4[nH]c(=S)[nH]c(=S)c24)CCCC3)cc1OC | > 100 | – | – | 76.2 | > 100 | – | > 100 | > 100 | > 100 | – | – | – | – | – | – | – | – | – | – | –
